The source of these data is patent US11180474B2 (BRISTOL-MYERS SQUIBB COMPANY, priority 2016, dated 2021).

Usually IC50 stands for the concentration that gives 50% inhibition. Higher therefore signals weaker potency.

One assay deals with T1, human TLR7 (Homo sapiens, UniProt Q9NYK1).
T1 construct: host or cells: HEK-Blue cells
T1 sequence (Q9NYK1 27-1049): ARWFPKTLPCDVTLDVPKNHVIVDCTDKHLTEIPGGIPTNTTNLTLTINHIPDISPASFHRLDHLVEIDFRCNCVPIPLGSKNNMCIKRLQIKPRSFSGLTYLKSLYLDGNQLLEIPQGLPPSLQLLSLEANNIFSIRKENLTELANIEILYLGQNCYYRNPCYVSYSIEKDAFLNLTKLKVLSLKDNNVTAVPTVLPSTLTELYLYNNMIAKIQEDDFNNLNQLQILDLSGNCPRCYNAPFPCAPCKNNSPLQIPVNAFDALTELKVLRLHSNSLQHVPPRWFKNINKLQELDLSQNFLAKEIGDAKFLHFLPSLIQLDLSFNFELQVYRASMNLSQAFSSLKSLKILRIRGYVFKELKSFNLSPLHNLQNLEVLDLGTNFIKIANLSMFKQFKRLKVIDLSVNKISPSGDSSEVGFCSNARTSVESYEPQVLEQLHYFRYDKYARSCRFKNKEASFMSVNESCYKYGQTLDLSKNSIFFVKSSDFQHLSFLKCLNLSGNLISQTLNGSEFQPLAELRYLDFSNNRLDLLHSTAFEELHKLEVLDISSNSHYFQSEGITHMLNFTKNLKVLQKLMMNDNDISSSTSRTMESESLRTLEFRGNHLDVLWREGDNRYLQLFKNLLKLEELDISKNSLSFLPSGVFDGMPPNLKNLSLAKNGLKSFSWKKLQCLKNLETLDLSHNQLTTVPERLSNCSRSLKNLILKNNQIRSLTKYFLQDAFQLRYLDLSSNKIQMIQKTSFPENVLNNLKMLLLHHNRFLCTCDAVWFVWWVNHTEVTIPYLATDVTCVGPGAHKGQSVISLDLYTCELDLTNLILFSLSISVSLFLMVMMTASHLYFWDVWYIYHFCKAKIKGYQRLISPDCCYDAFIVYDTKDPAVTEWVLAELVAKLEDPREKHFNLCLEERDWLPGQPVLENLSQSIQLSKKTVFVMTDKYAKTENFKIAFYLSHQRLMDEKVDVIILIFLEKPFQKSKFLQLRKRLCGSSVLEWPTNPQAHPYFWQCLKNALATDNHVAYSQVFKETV
Nature of the assay: TLR7 inhibition reporter assay (HEK-Blue cells, SEAP reporter, gardiquimod stimulation). In kind it is cell-based. The conditions noted are these: HEK-Blue cells overexpressing human TLR7, gardiquimod 7.5 μM. On the procedure:
(§1) TLR7/8/9 Inhibition Reporter Assays
Briefly, cells are seeded into Greiner 384 well plates (15000 cells per well for TLR7, 20,000 for TLR8 and 25,000 for TLR9) and then treated with test compounds in DMSO to yield a final dose response concentration range of 0.05 nM-50 μM. […] After a 22 hour incubation at 37° C., 5% CO2, SEAP levels are determined with the addition of HEK-Blue™ Detection reagent (Invivogen), a cell culture medium that allows for detection of SEAP, according to manufacturer's specifications. The percent inhibition is determined as the % reduction in the HEK-Blue signal present in wells treated with agonist plus DMSO alone compared to wells treated with a known inhibitor.
In general terms: Reporter assays use an easily measured gene product as a stand-in for the process of interest.

The next assay has as its target T2, human TLR9 (Homo sapiens, UniProt Q9NR96).
T2 construct: host or cells: HEK-Blue cells
T2 sequence (Q9NR96 26-1032): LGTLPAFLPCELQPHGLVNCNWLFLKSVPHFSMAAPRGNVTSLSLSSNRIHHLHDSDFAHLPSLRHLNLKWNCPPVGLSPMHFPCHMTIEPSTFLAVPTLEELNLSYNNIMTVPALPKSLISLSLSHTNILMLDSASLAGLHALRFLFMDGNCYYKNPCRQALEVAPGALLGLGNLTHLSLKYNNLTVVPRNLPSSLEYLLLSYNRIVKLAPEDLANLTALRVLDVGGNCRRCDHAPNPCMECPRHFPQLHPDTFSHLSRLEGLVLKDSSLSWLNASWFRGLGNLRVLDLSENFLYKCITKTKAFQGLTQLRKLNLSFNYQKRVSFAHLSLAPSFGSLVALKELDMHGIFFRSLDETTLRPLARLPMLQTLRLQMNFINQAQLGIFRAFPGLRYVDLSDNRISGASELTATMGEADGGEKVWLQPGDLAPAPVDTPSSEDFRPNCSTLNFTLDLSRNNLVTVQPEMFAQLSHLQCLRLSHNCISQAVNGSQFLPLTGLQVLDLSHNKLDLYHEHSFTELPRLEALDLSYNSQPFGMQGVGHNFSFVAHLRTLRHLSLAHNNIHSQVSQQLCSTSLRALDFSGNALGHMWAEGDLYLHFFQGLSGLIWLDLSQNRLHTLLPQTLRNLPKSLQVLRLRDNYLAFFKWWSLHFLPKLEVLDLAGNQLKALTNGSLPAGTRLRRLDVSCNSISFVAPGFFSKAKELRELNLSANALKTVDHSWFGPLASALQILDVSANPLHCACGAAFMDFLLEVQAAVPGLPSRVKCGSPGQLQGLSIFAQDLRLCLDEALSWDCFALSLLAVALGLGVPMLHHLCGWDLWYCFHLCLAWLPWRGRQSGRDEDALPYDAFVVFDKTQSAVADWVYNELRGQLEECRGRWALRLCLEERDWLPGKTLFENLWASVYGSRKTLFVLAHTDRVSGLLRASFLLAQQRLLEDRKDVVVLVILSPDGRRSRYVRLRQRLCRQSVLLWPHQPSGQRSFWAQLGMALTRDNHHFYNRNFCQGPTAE
Nature of the assay: TLR9 inhibition reporter assay (HEK-Blue cells, SEAP reporter, ODN2006 stimulation). The conditions noted are these: HEK-Blue cells overexpressing human TLR9, ODN2006 5 nM. In kind it is cell-based. How it is done: as §1
HEK-Blue™-cells (Invivogen) overexpressing human TLR7, TLR8 or TLR9 receptors were used for screening inhibitors of these receptors using an inducible SEAP (secreted embryonic alkaline phosphatase) reporter gene under the control of the IFN-β minimal promoter fused to five NF-κB and AP-1-binding sites. Briefly, cells are seeded into Greiner 384 well plates (15000 cells per well for TLR7, 20,000 for TLR8 and 25,000 for TLR9) and then treated with test compounds in DMSO to yield a final dose response concentration range of 0.05 nM-50 μM. After a 30 minute compound pre-treatment at room temperature, the cells are then stimulated with a TLR7 ligand (gardiquimod at a final concentration of 7.5 μM), TLR8 ligand (R848 at a final concentration of 15.9 μM) or TLR9 ligand (ODN2006 at a final concentration of 5 nM) to activate NF-κB and AP-1 which induce the production of SEAP. After a 22 hour incubation at 37° C., 5% CO2, SEAP levels are determined with the addition of HEK-Blue™ Detection reagent (Invivogen), a cell culture medium that allows for detection of SEAP, according to manufacturer's specifications. The percent inhibition is determined as the % reduction in the HEK-Blue signal present in wells treated with agonist plus DMSO alone compared to wells treated with a known inhibitor.

As to `CCc1c(-c2ccc(OC)c(OC)c2)[nH]c2ccc(C3CCN(C(=O)CN4CCCC(CO)C4)CC3)cc12` (stereo not drawn) [Example 169, 1-(4-(2-(3,4-dimethoxyphenyl)-3-ethyl-1H-indol-5-yl)piperidin-1-yl)-2-(3-(hydroxymethyl)piperidin-1-yl)ethan-1-one], the IC50 at human TLR7 was determined as 144 nM; against human TLR9, 2100 nM.
`COc1ccc(-c2[nH]c3ccc(C4CCN(C5CCN(C6CCC6)CC5)CC4)cc3c2C)cc1OC` [Example 61, 5-(1′-cyclobutyl-[1,4′-bipiperidin]-4-yl)-2-(3,4-dimethoxyphenyl)-3-methyl-1H-indole]: the IC50 was determined as 1590 nM against human TLR7 and 555 nM on human TLR9.
The matching figures for `COc1ccc(-c2[nH]c3ccc(C4CCN(Cc5cc6ccccc6n5C)CC4)cc3c2C)cc1OC` [Example 33, 2-(3,4-dimethoxyphenyl)-3-methyl-5-(1-((1-methyl-1H-indol-2-yl)methyl)piperidin-4-yl)-1H-indole]: at least 50000 nM and 3720 nM.
The matching figures for `COc1ccc(-c2[nH]c3ccc(C4CCN(C5CCCN(C6COC6)CC5)CC4)cc3c2C)cc1OC` (stereo not drawn) [Example 96, 2-(3,4-dimethoxyphenyl)-3-methyl-5-(1-(1-(oxetan-3-yl)azepan-4-yl)piperidin-4-yl)-1H-indole]: 2530 nM and 186 nM.
Turning to `CCc1c(-c2ccc(OC)c(OC)c2)[nH]c2ccc(C3CCN(C(=O)CNCC(C)(C)CO)CC3)cc12` [Example 164, 1-(4-(2-(3,4-dimethoxyphenyl)-3-ethyl-1H-indol-5-yl)piperidin-1-yl)-2-((3-hydroxy-2,2-dimethylpropyl)amino)ethan-1-one], the IC50 was 160 nM on human TLR7 and 2130 nM against human TLR9.
The like results for `COc1ccc(-c2[nH]c3ccc(C4CCNCC4)cc3c2C2CCOCC2)cc1OC` [Example 389, 2-(3,4-dimethoxyphenyl)-5-(piperidin-4-yl)-3-(tetrahydro-2H-pyran-4-yl)-1H-indole] were, in that order, 300 nM and 1640 nM.
The like results for `COc1ccc(-c2[nH]c3ccc(C4CCN(CCNC(=O)OC(C)(C)C)CC4)cc3c2C)cc1OC` [Example 99, tert-butyl (2-(4-(2-(3,4-dimethoxyphenyl)-3-methyl-1H-indol-5-yl)piperidin-1-yl)ethyl)carbamate] were, in that order, 938 nM and 1020 nM.
`COc1ccc(-c2[nH]c3ccc(C4CCN(Cc5ccc(OC(F)(F)F)cc5)CC4)cc3c2C(C)C)cc1OC` [Example 271, 2-(3,4-dimethoxyphenyl)-3-isopropyl-5-(1-(4-(trifluoromethoxy)benzyl)piperidin-4-yl)-1H-indole]: the IC50 stood at 2380 nM on human TLR7 and 10600 nM against human TLR9.
As to `COc1ccc(-c2[nH]c3ccc(C4CCN(Cc5cccc6cccnc56)CC4)cc3c2C)cc1OC` [Example 36, 8-((4-(2-(3,4-dimethoxyphenyl)-3-methyl-1H-indol-5-yl)piperidin-1-yl)methyl)quinoline], the IC50 at human TLR7 came to 1160 nM; on human TLR9, 348 nM.
The like results for `CCCN1CCC(N2CCC(c3ccc4[nH]c(-c5ccc(OC)c(OC)c5)c(C)c4c3)CC2)CC1` [Example 63, 2-(3,4-dimethoxyphenyl)-3-methyl-5-(1′-propyl-[1,4′-bipiperidin]-4-yl)-1H-indole] were, in that order, 321 nM and 132 nM.
Regarding `COc1ccc(-c2[nH]c3ccc(C4CCN(C5CCN(CCCC(=O)O)CC5)CC4)cc3c2C)cc1OC` [Example 70, 4-(4-(2-(3,4-dimethoxyphenyl)-3-methyl-1H-indol-5-yl)-[1,4′-bipiperidin]-1′-yl)butanoic acid], the IC50 against human TLR7 came out at 3750 nM; against human TLR9 it was 2280 nM.
Turning to `CCCC[C@@H](CO)NCC(=O)N1CCC(c2ccc3[nH]c(-c4ccc(OC)c(OC)c4)c(CC)c3c2)CC1` [Example 174, (S)-1-(4-(2-(3,4-dimethoxyphenyl)-3-ethyl-1H-indol-5-yl)piperidin-1-yl)-2-((1-hydroxyhexan-2-yl)amino)ethan-1-one], the IC50 against human TLR7 came out at 1180 nM; against human TLR9, 2570 nM.
